What is called IC50 is the concentration that inhibits the measured activity by half. Read a low IC50 as inhibition by little substance.

The structures appear in SMILES notation.

The experiment deals with Entamoeba histolytica. The experiment in a line: Antiamoebic activity against Entamoeba histolytica. Format: functional, organism-based.

In turn, `CSc1nc2ccccc2n1C` had an IC50 of 195 nM.
`Cc1nc2cc(Cl)ccc2n1C`: the IC50 was 5.01 nM.
`FC(F)(F)C(F)(F)c1nc2cc(Cl)c(Cl)cc2[nH]1`: half-maximal inhibition (IC50) required 209 nM.
Next, `O=[N+]([O-])c1cc2nc(C(F)(F)F)[nH]c2cc1[N+](=O)[O-]`: 1350 nM.
The same measure for `FC(F)(F)C(F)(F)c1nc2c(Br)c(Br)c(Br)c(Br)c2[nH]1`: 214 nM; for `Cn1c(S)nc2ccccc21`: 6.03 nM.
Next, `FC(F)(F)c1nc2c(Br)c(Br)c(Br)c(Br)c2[nH]1`: 302 nM; `Cn1c(S)nc2ccc(Cl)cc21`: 3800 nM; `CSc1nc2ccc(Cl)cc2n1C`: 575 nM.
`Cc1nc2cc(Cl)c(Cl)cc2n1C` showed an IC50 of 12.9 nM.
The molecule `Cn1c(N)nc2ccc(Cl)cc21` gave an IC50 of 245 nM.
The same measure for `Cn1c(N)nc2cc(Cl)c(Cl)cc21`: 37.2 nM; for `Cn1c(S)nc2cc(Cl)c(Cl)cc21`: 129 nM; for `Cc1nc2ccccc2n1C`: 61.7 nM.
Molecule `FC(F)(F)c1nc2cc(Br)ccc2[nH]1` had a 50% inhibitory concentration (IC50) of 1320 nM.
Consider `FC(F)(F)c1nc2c(Br)cc(Br)cc2[nH]1`, for which the IC50 was 50.1 nM.
With `CSc1nc2cc(Cl)ccc2n1C`, the 50% inhibitory concentration (IC50) was 37.2 nM.
Next, `Cn1c(S)nc2cc(Cl)ccc21`: 10 nM; `Cc1nc2ccc(Cl)cc2n1C`: 204 nM.
Regarding `CSc1nc2cc(Cl)c(Cl)cc2n1C`, the 50% inhibitory concentration (IC50) was 1050 nM.
`FC(F)(F)c1nc2cc(Br)c(Br)cc2[nH]1` gave an IC50 of 427 nM.

These data come from ChEMBL document CHEMBL1144534, “Molecular modeling of some 1H-benzimidazole derivatives with biological activity against Entamoeba histolytica: a comparative molecular field analysis study” (Bioorg Med Chem, 2007).
